Publication PMC5891627, “Binding Specificity of Two PBPs in the Yellow Peach Moth Conogethes punctiferalis (Guenée)” (Frontiers in Physiology, 2018)
Read-outs that look alike come from different tables or passages of the source.

Experiments:
CpunPBP2 = CpunPBP2 (Conogethes punctiferalis, UniProt A0A1D6X8W8); assay: Fluorescence displacement (competitive, 1-NPN) binding assay; details: for IC50: 1-NPN 2 μM as fluorescent reporter, 2 μM protein; for binding affinity to CpunPBP2 (in words): ranking among the 24 tested ligands
CpunPBP2, sequence (A0A1D6X8W8 entry or part of it): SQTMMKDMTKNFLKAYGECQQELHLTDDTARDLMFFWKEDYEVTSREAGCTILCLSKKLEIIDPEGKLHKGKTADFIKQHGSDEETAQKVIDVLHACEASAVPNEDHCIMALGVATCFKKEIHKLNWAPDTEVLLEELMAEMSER
Experimental: (§1) The fluorescence intensity was recorded on a FluoroMax-4 spectrophotometer (Horiba Scientific, USA) at room temperature using a 1 cm light path fluorimeter quartz cuvette. The fluorescent probe N-phenyl-1-naphthylamine (1-NPN) and all the tested chemicals were dissolved in HPLC purity methanol. The final concentration was prepared 1 mM. […] The fluorescence of 1-NPN was excited at 337 nm and emission spectra were recorded between […]. […] The GraphPad Prism 5 (GraphPad Software, Inc.) was used to estimate the K1−NPN (KD of complex protein /1-NPN) values by nonlinear regression for a unique site of binding. It was assumed that the proteins were 100% active, with a stoichiometry of 1:1 (protein:ligand) at saturation. […] In the equation, [1-NPN] is the free concentration of 1-NPN, and K1−NPN is the dissociation constant of the complex protein /1-NPN.

CpunPBP5 = CpunPBP5 (Conogethes punctiferalis, UniProt A0A0M4FIS7); assay: as above; details: for binding affinity to CpunPBP5 (in words): ranking among the 24 tested ligands
CpunPBP5, sequence (A0A0M4FIS7 entry or part of it): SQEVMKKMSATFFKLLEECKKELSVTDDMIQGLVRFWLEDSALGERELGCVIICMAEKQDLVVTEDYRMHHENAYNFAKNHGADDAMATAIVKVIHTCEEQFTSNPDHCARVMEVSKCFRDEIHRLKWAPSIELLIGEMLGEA
Experimental: as §1

[1] = pH = 7.4, calculated from IC50: KD = [IC50]/(1+[1-NPN]/K1-NPN), read-out: KD (μM), calculated dissociation constant
[2] = ratio of fluorescence intensity at the pheromone concentration of 6 mM to the initial fluorescence intensity, pH = 7.4
[3] = pH = 7.4, 1-NPN 2 μM as fluorescent reporter, 2 μM protein, read-out: IC50
[4] = ratio of fluorescence intensity at the pheromone concentration of 6 mM to the initial fluorescence intensity, pH = 7.4, read-out: Int (%)
[5] = read-out: KD (μM), calculated dissociation constant, pH = 7.4, calculated from IC50: KD = [IC50]/(1+[1-NPN]/K1-NPN)

Row | IC50 (CpunPBP2; pH = 7.4, read-out: IC50) | Kd (CpunPBP2; [1]) | Int (%) (CpunPBP2; [2]) | IC50 (CpunPBP5; [3]) | Kd (CpunPBP5; [1]) | Int (%) (CpunPBP5; [2]) | activity at 6000 µM (CpunPBP2; [4]) | activity at 6000 µM (CpunPBP5; [4]) | activity at 6000 µM (CpunPBP2; pH 7.4, read-out: Int (%)) | activity at 6000 µM (CpunPBP5; pH 7.4, read-out: Int (%)) | Compound | Kd (CpunPBP2; read-out: dissociation constant (KD) of CpunPBP2/1-NPN complex, direct titration of 2 μM protein with 1-NPN, Scatchard plot, pH 7.4) | Kd (CpunPBP5) | IC50 (CpunPBP2; pH = 7.4) | binding affinity to CpunPBP2 (in words) (CpunPBP2) | Kd (CpunPBP2; [5]) | IC50 (CpunPBP5) | binding affinity to CpunPBP5 (in words) (CpunPBP5)
1 | 12.3 ± 0.84 µM | 7.15 ± 0.49 µM | 62.32 ± 0.13% | 12.2 ± 0.66 µM | 9.89 ± 0.53 µM | 62.12 ± 0.30% | – | – | – | – | CCCCC/C=C/C=O [Trans-2-octanal] | – | – | – | – | – | – | –
2 | 7.49 ± 0.15 µM | 4.34 ± 0.08 µM | – | 8.67 ± 0.04 µM | 7.01 ± 0.03 µM | – | 56.59 ± 0.32% | 58.66 ± 0.31% | – | – | CCCCCCCCCCC=O [Undecanal] | – | – | – | – | – | – | –
3 | – | – | – | – | – | – | – | – | 61.8 ± 1.49% | 55.28 ± 0.1% | CC(=O)/C=C/C1C(C)=CCCC1(C)C (stereo not drawn) [α-ionone] | – | 6.79 ± 0.08 µM | 10.7 ± 0.97 µM | – | 6.22 ± 0.56 µM | 8.39 ± 0.1 µM | –
4 | 22.3 ± 1.3 µM | 12.9 ± 0.76 µM | – | 9.62 ± 0.58 µM | 7.79 ± 0.48 µM | – | 86.46 ± 0.38% | 59 ± 0.62% | – | – | CCCCCC/C=C/C=O [Trans-2-nonenal] | – | – | – | minimum binding affinities | – | – | –
5 | 11 ± 0.32 µM | 6.38 ± 0.19 µM | – | 8.2 ± 0.1 µM | 6.64 ± 0.08 µM | – | 78.17 ± 0.43% | 54.82 ± 0.07% | – | – | CCC(C)CCCC(C)C (centres unmarked) [2,6-Dimethyloctane] | – | – | – | – | – | – | –
6 | 13.1 ± 0.24 µM | 7.62 ± 0.14 µM | – | 15.2 ± 0.6 µM | 12.5 ± 0.49 µM | – | 72.86 ± 0.24% | 72.6 ± 0.11% | – | – | CCCCCCCCCC=O [Decanal] | – | – | – | – | – | – | –
7 | 2.82 ± 0.19 µM | 1.63 ± 0.11 µM | 40.51 ± 0.78% | 5.25 ± 0.02 µM | 4.25 ± 0.02 µM | 47.47 ± 0.12% | – | – | – | – | C=CC(=C)CC/C=C(\C)CCC=C(C)C [β-farnesene] | – | – | – | – | – | – | –
8 | – | – | – | – | – | – | – | – | 88.04 ± 0.58% | 62.6 ± 0.79% | CC(=O)/C=C/C1=C(C)CCCC1(C)C [β-ionone] | – | 9.85 ± 0.38 µM | 17.3 ± 0.84 µM | – | 10.1 ± 0.49 µM | 12.2 ± 0.47 µM | –
9 | 14.2 ± 0.71 µM | 8.27 ± 0.41 µM | – | 7.27 ± 0.06 µM | 5.89 ± 0.47 µM | – | 73.64 ± 0.06% | 53.54 ± 0.01% | – | – | CCCCCCCCCCCCCCCC(=O)O [Palmitic acid] | – | – | – | – | – | – | –
10 | 14.7 ± 0.47 µM | 8.5 ± 0.27 µM | – | 13.1 ± 0.62 µM | 10.6 ± 0.78 µM | – | 77.22 ± 0.07% | 65.83 ± 0.28% | – | – | CCCCCCCCC=O [Nonanal] | – | – | – | – | – | – | –
11 | – | – | – | – | – | – | – | – | 45.55 ± 0.38% | 42.29 ± 0.12% | CCCCCCCCCCCCCCO [1-tetrodecanol] | – | 2.86 ± 0.02 µM | 3.94 ± 0.14 µM | highest binding affinity | 2.28 ± 0.08 µM | 3.53 ± 0.03 µM | highest binding affinity
12 | 17.9 ± 0.83 µM | 10.4 ± 0.48 µM | – | 19.7 ± 0.95 µM | 15.9 ± 0.77 µM | – | 84.85 ± 0.31% | 68.32 ± 0.21% | – | – | CCCCCCC=O [Heptanal] | – | – | – | – | – | – | minimum binding abilities

Continued, compound first:

Row | Compound | IC50 (CpunPBP2; pH = 7.4, read-out: IC50) | Kd (CpunPBP2; [1]) | Int (%) (CpunPBP2; [2]) | IC50 (CpunPBP5; [3]) | Kd (CpunPBP5; [1]) | Int (%) (CpunPBP5; [2]) | activity at 6000 µM (CpunPBP2; [4]) | activity at 6000 µM (CpunPBP5; [4]) | activity at 6000 µM (CpunPBP2; pH 7.4, read-out: Int (%)) | activity at 6000 µM (CpunPBP5; pH 7.4, read-out: Int (%)) | Kd (CpunPBP2; read-out: dissociation constant (KD) of CpunPBP2/1-NPN complex, direct titration of 2 μM protein with 1-NPN, Scatchard plot, pH 7.4) | Kd (CpunPBP5) | IC50 (CpunPBP2; pH = 7.4) | binding affinity to CpunPBP2 (in words) (CpunPBP2) | Kd (CpunPBP2; [5]) | IC50 (CpunPBP5) | binding affinity to CpunPBP5 (in words) (CpunPBP5)
13 | c1ccc(Nc2cccc3ccccc23)cc1 [1-NPN, N-phenyl-1-naphthylamine, reference compound] | – | – | – | – | – | – | – | – | – | – | 0.76 ± 0.1 µM | 0.58 ± 0.04 µM | – | – | – | – | –
14 | C=CC(C)(O)CCC=C(C)C (centres unmarked) [Linalool] | – | – | – | – | – | – | 72.27 ± 0.43% | 66.92 ± 0.13% | – | – | – | 13.7 ± 1.15 µM | 22 ± 4.72 µM | minimum binding affinities | 12.8 ± 2.74 µM | 17 ± 1.42 µM | minimum binding abilities
15 | CC/C=C\CCO [cis-3-hexen-1-ol] | – | – | – | – | – | – | – | – | 89.59 ± 0.25% | 66.81 ± 0.61% | – | 14.9 ± 1.12 µM | 34.5 ± 3.2 µM | minimum binding affinities | 20 ± 1.85 µM | 18.4 ± 1.38 µM | minimum binding abilities
16 | COc1cc(C=O)ccc1O [Vanillin] | – | – | – | – | – | – | 85.4 ± 0.31% | 71.19 ± 0.36% | – | – | – | 20.4 ± 2.35 µM | 19.9 ± 1 µM | – | 11.6 ± 0.58 µM | 25.1 ± 2.9 µM | minimum binding abilities
17 | C=C(C)[C@H]1CC=C(C)CC1 [Limonene] | 11.9 ± 0.67 µM | 6.92 ± 0.39 µM | 82.86 ± 0.44% | 10.7 ± 0.22 µM | 8.67 ± 0.18 µM | 60.13 ± 0.09% | – | – | – | – | – | – | – | – | – | – | –
18 | C=C1CC/C=C(\C)CC[C@@H]2[C@@H]1CC2(C)C (relative stereo) [Trans-caryopyllene] | 6.17 ± 0.14 µM | 3.58 ± 0.08 µM | 50.42 ± 0.51% | 4.67 ± 0.02 µM | 3.78 ± 0.01 µM | 45.87 ± 0.10% | – | – | – | – | – | – | – | – | – | – | –
19 | CC1=CCC2CC1C2(C)C (stereo not drawn) [α-pinene] | – | – | – | – | – | – | 77.7 ± 0.33% | 74.88 ± 0.39% | – | – | – | 11.4 ± 1.02 µM | 27.9 ± 4.3 µM | minimum binding affinities | 16.2 ± 2.5 µM | 14.1 ± 1.26 µM | –
20 | C=C1CCC2CC1C2(C)C (stereo not drawn) [β-pinene] | – | – | – | – | – | – | – | – | 80.45 ± 0.68% | 68.43 ± 0.63% | – | 9.3 ± 0.31 µM | 21 ± 2.26 µM | minimum binding affinities | 12.2 ± 1.31 µM | 11.5 ± 0.39 µM | –
21 | Hexenal | 34.56 ± 0.12 µM | 20 ± 0.68 µM | 83.11 ± 0.15% | 11.7 ± 0.66 µM | 9.44 ± 0.53 µM | 60.86 ± 0.49% | – | – | – | – | – | – | – | minimum binding affinities | – | – | –
